Target: T1, α-7 nicotinic ACh receptor ion channel (Rattus norvegicus, UniProt Q05941)
T1 construct: expressed in transfected cells
Experiment: FLIPR Ca2+-sensitive fluorescence assay of α7 nicotinic acetylcholine receptor channel function (agonist activity) in HEK 293 cells
Type: cell-based
Conditions: Table 3; Ca2+ flux, HEK-293 cells expressing the channel
Description: I) α7 Nicotinic Acetycholine Receptor Binding. Membranes were prepared for binding using HEK293 cells stably expressing the rat α7 nicotinic acetycholine receptor (rat α7 nAChR). Cells were homogenized at 4° C. in hypotonic lysis buffer consisting of 10 mM Tris (pH 7.4), 5 mM EDTA and protease inhibitors and centrifuged at 32000×g for 20 minutes. The pellet was washed once in membrane wash buffer consisting of 50 mM Tris (pH 7.4), 1 mM EDTA and protease inhibitors and centrifuged at 32000×g for 20 minutes. This pellet was then resuspended in assay buffer consisting 50 mM KH2PO4 (pH 7.4 at 25° C.), 1 mM EDTA, 0.005% Triton-X 100 and 0.1% (v/v) Sigma Protease Inhibitor Cocktail. Aliquots were then frozen in dry ice/ethanol and kept at −80° C. until the day of the assay. II) A Ca^2+-Sensitive, Fluorescence-Based Assay α-7 for Nicotinic Acetylcholine Receptor Channel Function in Mammalian Cells (“FLIPR”). Summary: Lead compounds are evaluated for agonist activity at α-7, α3β4, α4αβ2, and α1β1δ1ε sub-types of nicotinic ACh receptor ion channels expressed in mammalian HEK 293 cells. Agonist potency and efficacy values are determined from kinetic fluorescence Ca^2+ influx measurements made using a 384 well FLIPR (Fluorescence Image Plate Reader). The utility of fluorescent indicators for measuring changes in intracellular divalent cation concentrations, particularly Ca^2+, for drug discovery endeavors is well documented (Rudiger, R., et al., Nature Reviews, 2003, 4:579-586; Gonzalez J. E., et al., Receptors and Channels, 2002, 8:283-295). In this assay, channel expressing HEK cell lines seeded in 384 well assay plates are loaded with a membrane permeant fluorescent Ca^2+ indicator dye, whose 510 nm green emission signal increases in response to elevation of intracellular Ca^2+ concentration. The basal fluorescence from the cells is monitored in real time, followed by the acute addition of test compounds. If the compound is an agonist at any of the non-selective cation channels, the latter open and allow the movement of extracellular Ca^2+ ions into the cell cytoplasm, where they bind to the Ca^2+ indicator dye, and produce an increase in fluorescence output signal, which is detected by a cooled CCD imaging camera.
(§1) Materials and Methods: Reagents: The acetomethoxy (AM) ester of the Ca^2+ indicator dye Fluo-4 was obtained from InVitrogen, (Carlsbad, Calif.). Acetylcholine and all buffer constituents were purchased from Sigma Chemical Company, St. Louis, Mo. G418 and Minimal Essential Medium were purchased from InVitrogen Life Technologies, Carlsbad, Calif. Fetal bovine serum was purchased from (InVitrogen, Carlsbad, Calif.).
(§2) Cell Culture: HEK-293 cells were grown in Minimal Essential Medium containing 10% (v/v) fetal bovine serum at 37° C. in a 5% CO2 incubator. HEK-293 cells stably expressing the ion channels were grown in the same medium with the addition of 500 μg/ml G418.
Ca^2+ flux assays of Ca^2+ channels expressed in HEK-293 cells: HEK-293 cells expressing the ion channels of interest were plated in 384 well, black-walled, clear-bottomed, poly-D-lysine coated plates at a density of ˜20,000 cells/well in 20 μl of Minimal Essential Medium containing 10% (v/v) fetal bovine serum and incubated for 2 days at 29° C. in a 5% CO2 incubator. Prior to assay, cells were loaded with the Fluo-4 AM ester. Cell loading was accomplished by removing the culture medium and replacing it with 30 μl/well of the AM ester of the dye (5 μM) mixed with Hanks Balanced Salt Solution (#14175-095) containing 20 mM HEPES, 2.5 mM probenecid, 0.5 mM CaCl2, 1 mM MgCl2 and 10 μM atropine. Dye loading was allowed to proceed for 90 minutes at room temperature at which time the dye loading solution was removed and replaced with 40 μl/well of Hanks buffer. Cells loaded with dye were loaded onto a FLIPR384 (Molecular Devices, Sunnyvale, Calif.). Fluo-4 dye was excited using the 488 nm line of an argon laser. Emission was filtered using a 540+/−30 nm bandpass filter. […]

T1 sequence (Q05941 23-502): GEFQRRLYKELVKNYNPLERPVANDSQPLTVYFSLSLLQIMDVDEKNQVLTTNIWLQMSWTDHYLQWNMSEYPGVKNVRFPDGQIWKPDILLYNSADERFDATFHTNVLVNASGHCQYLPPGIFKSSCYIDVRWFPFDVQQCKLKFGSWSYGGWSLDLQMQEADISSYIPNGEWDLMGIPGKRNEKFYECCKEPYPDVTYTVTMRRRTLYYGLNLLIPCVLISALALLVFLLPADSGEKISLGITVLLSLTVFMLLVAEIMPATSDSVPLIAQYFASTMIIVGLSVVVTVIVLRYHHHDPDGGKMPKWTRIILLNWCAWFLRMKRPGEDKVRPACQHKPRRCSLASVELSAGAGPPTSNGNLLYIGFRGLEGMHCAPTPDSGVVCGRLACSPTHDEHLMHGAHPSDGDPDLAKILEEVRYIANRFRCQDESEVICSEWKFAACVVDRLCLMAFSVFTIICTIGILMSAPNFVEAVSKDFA

EC50 [nM]	Compound
190	Cc1ccc2c(C(=O)N3[C@@H]4C[C@H]5CC[N@@](C4)C[C@H]53)n[nH]c2c1 [Example 30, (6-methyl-1H-indazol-3-yl)((2R,3aR,6S,7aS)-hexahydro-2,6-methanopyrrolo[2,3-c]pyridin-1(2H)-yl)methanone]
> 100000	O=C(c1cc(-c2ccccc2)[nH]n1)N1[C@@H]2C[C@H]3CC[N@@](C2)C[C@H]31 [Example 32, ((2R,3aR,6S,7aS)-hexahydro-2,6-methanopyrrolo[2,3-c]pyridin-1(2H)-yl)(5-phenyl-1H-pyrazol-3-yl)methanone]
150	O=C(c1n[nH]c2ccccc12)N1[C@@H]2C[C@H]3CC[N@@](C2)C[C@H]31 [Example 33, ((2R,3aR,6S,7aS)-hexahydro-2,6-methanopyrrolo[2,3-c]pyridin-1(2H)-yl)(1H-indazol-3-yl)methanone]

Compound	EC50 [nM]
O=C(c1noc2ccccc12)N1[C@@H]2C[C@H]3CC[N@@](C2)C[C@H]31 [Example 29, benzo[d]isoxazol-3-yl((2R,3aR,6S,7aS)-hexahydro-2,6-methanopyrrolo[2,3-c]pyridin-1(2H)-yl)methanone]	3100
O=C(c1n[nH]c2ncccc12)N1[C@@H]2C[C@H]3CC[N@@](C2)C[C@H]31 [Example 31, ((2R,3aR,6S,7aS)-hexahydro-2,6-methanopyrrolo[2,3-c]pyridin-1(2H)-yl)(1H-pyrazolo[3,4-b]pyridin-3-yl)methanone]	9200

Target: T2, α7-HI (Rattus norvegicus, UniProt Q05941)
T2 construct: expressed in transfected cells
Experiment: FLIPR Ca2+-sensitive fluorescence assay, α7-HI (agonist activity) in HEK 293 cells
Type: cell-based
Conditions: not given
Description: I) α7 Nicotinic Acetycholine Receptor Binding. Membranes were prepared for binding using HEK293 cells stably expressing the rat α7 nicotinic acetycholine receptor (rat α7 nAChR). Cells were homogenized at 4° C. in hypotonic lysis buffer consisting of 10 mM Tris (pH 7.4), 5 mM EDTA and protease inhibitors and centrifuged at 32000×g for 20 minutes. The pellet was washed once in membrane wash buffer consisting of 50 mM Tris (pH 7.4), 1 mM EDTA and protease inhibitors and centrifuged at 32000×g for 20 minutes. This pellet was then resuspended in assay buffer consisting 50 mM KH2PO4 (pH 7.4 at 25° C.), 1 mM EDTA, 0.005% Triton-X 100 and 0.1% (v/v) Sigma Protease Inhibitor Cocktail. Aliquots were then frozen in dry ice/ethanol and kept at −80° C. until the day of the assay. II) A Ca^2+-Sensitive, Fluorescence-Based Assay α-7 for Nicotinic Acetylcholine Receptor Channel Function in Mammalian Cells (“FLIPR”). Summary: Lead compounds are evaluated for agonist activity at α-7, α3β4, α4αβ2, and α1β1δ1ε sub-types of nicotinic ACh receptor ion channels expressed in mammalian HEK 293 cells. Agonist potency and efficacy values are determined from kinetic fluorescence Ca^2+ influx measurements made using a 384 well FLIPR (Fluorescence Image Plate Reader). […] In this assay, channel expressing HEK cell lines seeded in 384 well assay plates are loaded with a membrane permeant fluorescent Ca^2+ indicator dye, whose 510 nm green emission signal increases in response to elevation of intracellular Ca^2+ concentration. The basal fluorescence from the cells is monitored in real time, followed by the acute addition of test compounds.
as §1, §2
Ca^2+ flux assays of Ca^2+ channels expressed in HEK-293 cells: HEK-293 cells expressing the ion channels of interest were plated in 384 well, black-walled, clear-bottomed, poly-D-lysine coated plates at a density of ˜20,000 cells/well in 20 μl of Minimal Essential Medium containing 10% (v/v) fetal bovine serum and incubated for 2 days at 29° C. in a 5% CO2 incubator. Prior to assay, cells were loaded with the Fluo-4 AM ester. […] Dye loading was allowed to proceed for 90 minutes at room temperature at which time the dye loading solution was removed and replaced with 40 μl/well of Hanks buffer. Cells loaded with dye were loaded onto a FLIPR384 (Molecular Devices, Sunnyvale, Calif.). Fluo-4 dye was excited using the 488 nm line of an argon laser. Emission was filtered using a 540+/−30 nm bandpass filter. For evaluation of the effects of test compounds using the Ca^2+ flux assay, compounds to be tested were provided in assay ready plates. For nicotinic receptor ion channel expressing cells, the assay was initiated by the addition of 20 μl/well of Hanks buffer containing test compounds. For all assays, data were collected at 1 Hz for 10 seconds (baseline), at which time the compound containing stimulus buffers are added, and further measurements collected at 0.33 Hz for 3 min.
Data Analysis: The statistical robustness of the nicotinic receptor Ca^2+ flux assays is determined from blanks and totals wells. […] The raw fluorescence units data files generated on the FLIPR plate reader are automatically exported and processed by in-house data analysis tools.

T2 sequence (Q05941 23-502): as above

Compound	EC50 [nM]
O=C(c1n[nH]c2ccccc12)N1[C@@H]2C[C@H]3C[N@](CC[C@H]31)C2 [Example 34b, ((2R,3aS,5S,7aR)-hexahydro-2,5-methanopyrrolo[3,2-c]pyridin-1(6H)-yl)(1H-indazol-3-yl)methanone]	250

Same assay, conditions: Table 4; Ca2+ flux, HEK-293 cells expressing the channel; read-out: FLIPR α7-HI (EC50)

Compound	EC50 [nM]
O=C(c1n[nH]c2ccccc12)N1[C@H]2C[C@@H]3C[N@@](CC[C@@H]31)C2 (single isomer, unassigned) [Example 34a]	7.5
O=C(c1n[nH]c2ccccc12)N1C2CC3CN(CCC31)C2 (stereo not drawn) [Example 34, ((2S*,3aR*,5R*,7aS*)-hexahydro-2,5-methanopyrrolo[3,2-c]pyridin-1(6H)-yl)(1H-indazol-3-yl)methanone]	29
O=C(c1cc2cccc(Cl)c2s1)N1C2CC3CN(CCC31)C2 (stereo not drawn) [Example 35, ((2S*,3aR*,5R*,7aS*)-(7-chloro-benzo[b]thiophen-2-yl)(hexahydro-2,5-methanopyrrolo[3,2-c]pyridin-1(6H)-yl)methanone]	5600
O=C(c1ccc(Cl)cc1)N1C2CC3CN(CCC31)C2 (stereo not drawn) [Example 36, ((2S*,3aR*,5R*,7aS*)-(4-chlorophenyl)(hexahydro-2,5-methanopyrrolo[3,2-c]pyridin-1(6H)-yl)methanone]	> 100000
Cn1nc(C(=O)N2C3CC4CN(CCC42)C3)c2ccccc21 (stereo not drawn) [Example 37, ((2S*,3aR*,5R*,7aS*)-(hexahydro-2,5-methanopyrrolo[3,2-c]pyridin-1(6H)-yl)(1-methyl-1H-indazol-3-yl)methanone]	> 100000
O=C(c1cc(-c2ccccc2)n[nH]1)N1C2CC3CN(CCC31)C2 (stereo not drawn) [Example 38, ((2S*,3aR*,5R*,7aS*)-(hexahydro-2,5-methanopyrrolo[3,2-c]pyridin-1(6H)-yl)(3-phenyl-1H-pyrazol-5-yl)methanone]	> 100000
Cn1cc(C(=O)N2C3CC4CN(CCC42)C3)c2ccccc21 (stereo not drawn) [Example 39, ((2S*,3aR*,5R*,7aS*)-(hexahydro-2,5-methanopyrrolo[3,2-c]pyridin-1(6H)-yl)(1-methyl-1H-indol-3-yl)methanone]	> 100000
O=C(c1n[nH]c2ccc(Cl)cc12)N1C2CC3CN(CCC31)C2 (stereo not drawn) [Example 40, ((2S*,3aR*,5R*,7aS*)-(5-chloro-1H-indazol-3-yl)(hexahydro-2,5-methanopyrrolo[3,2-c]pyridin-1(6H)-yl)methanone]	79
COc1ccc2[nH]nc(C(=O)N3C4CC5CN(CCC53)C4)c2c1 (stereo not drawn) [Example 41, ((2S*,3aR*,5R*,7aS*)-(5-methoxy-1H-indazol-3-yl)(hexahydro-2,5-methanopyrrolo[3,2-c]pyridin-1(6H)-yl)methanone]	> 100000
O=C(c1n[nH]c2cc(F)ccc12)N1C2CC3CN(CCC31)C2 (stereo not drawn) [Example 42, ((2S*,3aR*,5R*,7aS*)-(6-fluoro-1H-indazol-3-yl)(hexahydro-2,5-methanopyrrolo[3,2-c]pyridin-1(6H)-yl)methanone]	54
COc1ccc2c(C(=O)N3C4CC5CN(CCC53)C4)n[nH]c2c1 (stereo not drawn) [Example 43, ((2S*,3aR*,5R*,7aS*)-(6-methoxy-1H-indazol-3-yl)(hexahydro-2,5-methanopyrrolo[3,2-c]pyridin-1(6H)-yl)methanone]	23
O=C(c1n[nH]c2ccc(Br)cc12)N1C2CC3CN(CCC31)C2 (stereo not drawn) [Example 44, ((2S*,3aR*,5R*,7aS*)-(5-bromo-1H-indazol-3-yl)(hexahydro-2,5-methanopyrrolo[3,2-c]pyridin-1(6H)-yl)methanone]	> 100000
O=C(c1n[nH]c2c(Cl)cccc12)N1C2CC3CN(CCC31)C2 (stereo not drawn) [Example 45, ((2S*,3aR*,5R*,7aS*)-(7-chloro-1H-indazol-3-yl)(hexahydro-2,5-methanopyrrolo[3,2-c]pyridin-1(6H)-yl)methanone]	> 100000

From patent US9796713B2, “Tricyclic compounds as alpha-7 nicotinic acetylcholine receptor ligands” (BRISTOL-MYERS SQUIBB COMPANY, priority 2014, dated 2017)
